Reference: the NIST ThermoML archive (doi:10.1016/j.jct.2010.01.003)
± gives the expanded uncertainty stated by the source.

Conditions: Liquid; for speed of sound: Single path-length method; for mass density: Vibrating tube method

CCCCCCCCCCCCCCCC [hexadecane]
Conditions | mass density [kg/m3] | speed of sound [m/s]
290.65 K, 83 kPa | 775 ± 0.7 | 1367.2 ± 5.6
291.15 K, 83 kPa | 774.7 ± 0.7 | 1365.3 ± 5.6
291.65 K, 83 kPa | 774.4 ± 0.7 | 1363.4 ± 5.5
292.15 K, 83 kPa | 774 ± 0.7 | 1361.5 ± 5.5
292.65 K, 83 kPa | 773.6 ± 0.7 | 1359.6 ± 5.5
293.15 K, 83 kPa | 773.3 ± 0.7 | 1357.7 ± 5.5
298.15 K, 83 kPa | 769.8 ± 0.7 | 1338.8 ± 5.4
303.15 K, 83 kPa | 766.4 ± 0.7 | 1320.2 ± 5.4
308.15 K, 83 kPa | 762.9 ± 0.7 | 1301.7 ± 5.3
310 K, 1110 kPa | 761.74 ± 1.6 | –
310 K, 2710 kPa | 762.85 ± 1.6 | –
310 K, 5870 kPa | 765.01 ± 1.6 | –
310 K, 10770 kPa | 768.25 ± 1.6 | –
310 K, 15700 kPa | 771.38 ± 1.7 | –
310 K, 20650 kPa | 774.41 ± 1.7 | –
310 K, 25600 kPa | 777.3 ± 1.7 | –
310 K, 34700 kPa | 782.46 ± 1.7 | –
310 K, 36730 kPa | 783.55 ± 1.7 | –
313.15 K, 83 kPa | 759.4 ± 0.6 | 1283.4 ± 5.2
318.15 K, 83 kPa | 756 ± 0.6 | 1265.3 ± 5.2
323.15 K, 83 kPa | 752.5 ± 0.6 | 1247.4 ± 5.1
328.15 K, 83 kPa | 749.1 ± 0.6 | 1229.8 ± 5
330 K, 1130 kPa | 748.39 ± 1.6 | –
330 K, 2730 kPa | 749.66 ± 1.6 | –
330 K, 5890 kPa | 752.03 ± 1.6 | –
330 K, 10790 kPa | 755.61 ± 1.6 | –
330 K, 15740 kPa | 759.04 ± 1.7 | –
330 K, 20680 kPa | 762.35 ± 1.7 | –
330 K, 25980 kPa | 765.74 ± 1.7 | –
330 K, 36160 kPa | 771.9 ± 1.7 | –
330 K, 38240 kPa | 773.11 ± 1.7 | –
330 K, 45960 kPa | 777.44 ± 1.7 | –
333.15 K, 83 kPa | 745.6 ± 0.6 | 1212.3 ± 5
338.15 K, 83 kPa | 742.2 ± 0.6 | 1194.9 ± 4.9
343.15 K, 83 kPa | 738.7 ± 0.6 | 1177.9 ± 4.8
350 K, 1020 kPa | 734.55 ± 1.6 | –
350 K, 2630 kPa | 735.94 ± 1.6 | –
350 K, 5790 kPa | 738.58 ± 1.6 | –
350 K, 10710 kPa | 742.54 ± 1.6 | –
350 K, 15650 kPa | 746.27 ± 1.7 | –
350 K, 20600 kPa | 749.88 ± 1.7 | –
350 K, 25560 kPa | 753.33 ± 1.7 | –
350 K, 36140 kPa | 760.24 ± 1.7 | –
350 K, 40130 kPa | 762.7 ± 1.7 | –
370 K, 1030 kPa | 720.83 ± 1.6 | –
370 K, 2620 kPa | 722.35 ± 1.6 | –
370 K, 5780 kPa | 725.3 ± 1.6 | –
370 K, 10710 kPa | 729.65 ± 1.6 | –
370 K, 15660 kPa | 733.76 ± 1.7 | –
370 K, 20610 kPa | 737.69 ± 1.7 | –
370 K, 25580 kPa | 741.44 ± 1.7 | –
370 K, 34010 kPa | 747.41 ± 1.7 | –
370 K, 41340 kPa | 752.26 ± 1.7 | –
390 K, 1040 kPa | 706.5 ± 1.6 | –
390 K, 2630 kPa | 708.23 ± 1.6 | –
390 K, 5790 kPa | 711.5 ± 1.6 | –
390 K, 10690 kPa | 716.31 ± 1.6 | –
390 K, 15650 kPa | 720.83 ± 1.7 | –
390 K, 20600 kPa | 725.12 ± 1.7 | –
390 K, 25550 kPa | 729.18 ± 1.7 | –
390 K, 35160 kPa | 736.52 ± 1.7 | –
390 K, 39900 kPa | 739.91 ± 1.7 | –
390 K, 44320 kPa | 742.94 ± 1.7 | –
390 K, 46900 kPa | 744.61 ± 1.7 | –
410 K, 1080 kPa | 692.52 ± 1.6 | –
410 K, 2680 kPa | 694.47 ± 1.6 | –
410 K, 5830 kPa | 698.12 ± 1.6 | –
410 K, 10750 kPa | 703.47 ± 1.7 | –
410 K, 15700 kPa | 708.47 ± 1.7 | –
410 K, 20630 kPa | 713.12 ± 1.7 | –
410 K, 25570 kPa | 717.52 ± 1.7 | –
410 K, 30420 kPa | 721.61 ± 1.7 | –
410 K, 37220 kPa | 726.98 ± 1.7 | –
410 K, 44820 kPa | 732.63 ± 1.7 | –
410 K, 50700 kPa | 736.75 ± 1.8 | –
430 K, 970 kPa | 677.73 ± 1.6 | –
430 K, 2590 kPa | 679.9 ± 1.6 | –
430 K, 5770 kPa | 684.04 ± 1.6 | –
430 K, 10650 kPa | 689.93 ± 1.7 | –
430 K, 15590 kPa | 695.44 ± 1.7 | –
430 K, 20560 kPa | 700.57 ± 1.7 | –
430 K, 25530 kPa | 705.37 ± 1.7 | –
430 K, 30420 kPa | 709.84 ± 1.7 | –
430 K, 39590 kPa | 717.56 ± 1.7 | –
430 K, 44320 kPa | 721.28 ± 1.8 | –
430 K, 48490 kPa | 724.39 ± 1.8 | –
450 K, 960 kPa | 662.64 ± 1.6 | –
450 K, 2560 kPa | 665.22 ± 1.6 | –
450 K, 5750 kPa | 669.98 ± 1.6 | –
450 K, 10620 kPa | 676.53 ± 1.7 | –
450 K, 15590 kPa | 682.65 ± 1.7 | –
450 K, 20560 kPa | 688.27 ± 1.7 | –
450 K, 25530 kPa | 693.48 ± 1.7 | –
450 K, 30800 kPa | 698.66 ± 1.7 | –
450 K, 39150 kPa | 706.2 ± 1.7 | –
450 K, 43400 kPa | 709.8 ± 1.8 | –
450 K, 45310 kPa | 711.32 ± 1.8 | –
470 K, 1070 kPa | 648.42 ± 1.6 | –
470 K, 2660 kPa | 651.24 ± 1.6 | –
470 K, 5770 kPa | 656.4 ± 1.6 | –
470 K, 10730 kPa | 663.85 ± 1.7 | –
470 K, 15690 kPa | 670.57 ± 1.7 | –
470 K, 20640 kPa | 676.69 ± 1.7 | –
470 K, 25530 kPa | 682.28 ± 1.7 | –
470 K, 30470 kPa | 687.53 ± 1.7 | –
470 K, 38870 kPa | 695.7 ± 1.8 | –
470 K, 42790 kPa | 699.27 ± 1.8 | –
470 K, 47790 kPa | 703.6 ± 1.8 | –
